{"source": "patent US20160038392A1", "about": "“COMPOSITIONS COMPRISING PAULOWNIN AND/OR PAULOWNIA EXTRACTS AND USES THEREOF” (Johnson & Johnson Consumer Inc., priority 2010, published 2016)", "key": {"[1]": {"test_system": "NF-κB promoter activity in H9c2 cells", "test": "NF-κB Inhibition Assay (NF-κB promoter luciferase, TNFα stimulated)", "assay_type": "cell-based", "conditions": "Rattus norvegicus", "description": "The NF-κB promoter assay is conducted as follows: rat cardiac myoblasts H9c2 cells were purchased from ATCC (Manassas, Va.). Cultures were maintained in Dulbecco's modified Eagle's medium (DMEM, Invitrogen Life Technologies, Carlsbad, Calif.) supplemented with 10% fetal bovine serum, 100 units/ml penicillin, and 50 μg/ml streptomycin (Invitrogen life technologies, Carlsbad, Calif.). Typically, 1×10^4 cells grown in 96-well plates were transiently transfected with 0.45 μg total DNA per well using Lipofectamine 2000 (Invitrogen life technologies, Carlsbad, Calif.). In all transfections, a construct with the thymidine kinase promoter and the Renilla luciferase reporter gene (pRL-TK, Promega, Madison, Wis.) was included as an internal control in addition to the luciferase promoter. One day after transfection, cells were treated with the extracts at indicated concentrations and stimulated with 100 ng/mL of Tumor Necrosis Factor-a (TNFα, Sigma-Aldrich, St Louis, Mo.) for approximately 24 hours before they were lysed for luciferase assays, using Dual-Luciferase Reporter System from Promega (Madison, Wis.), following manufacturer's protocol. Briefly, the firefly luciferase activity was measured first (representing NF-κB promoter activity), followed by the renilla luciferase (internal control), using luminometer LMAX, from Molecular Devices (Sunnyvale, Calif.). […]"}, "[2]": {"test_system": "MatTek's MelanoDerm skin epidermal equivalent tissues (MEL-300-B; NHEK and NHM)", "test": "Skin Epidermal Equivalents Model as a Skin Lightening Test (ΔL)", "assay_type": "cell-based, human", "conditions": "topical daily 8 days, measured day 9", "text": "Skin epidermal equivalent tissues are available commercially from MatTek's MelanoDerm™ System and were used for the following tests. MatTek's MelanoDerm™ System consists of normal, human-derived epidermal keratinocytes (NHEK) and melanocytes (NHM) which have been cultured to form a multilayered, highly differentiated model of the human epidermis. Specifically, MEL-300-B tissues, each 9 mm in diameter were used in the following tests.\nThe test materials prepared in an appropriate vehicle and tested concentrations were applied topically to the skin model daily and the experiment lasted for 8 days. Measurement was taken on day 9.\nThe macroscopic and microscopic visual tissue darkening end points were measured by taking pictures with a digital camera. The Degree of Lightness for each tissue (L-Value) was measured using a spectrophotometer (Konica Minolta CM-2600d). The ΔL (degree of lightness as compared to control) for each test sample is calculated as per following formula:\nΔL=L-value of treated sample−L-value of control sample."}, "[3]": {"test_system": "skin epidermal tissues (MelanoDerm)", "test": "Cell Viability Test (MTT) on skin epidermal tissues", "assay_type": "cell-based, human", "conditions": "at tested concentrations; ≧30% reduction of cell viability = significant", "description": "Cell Viability of the tissue during experiment was evaluated using the MTT assay described as follows. The MTT Tissue Viability Assay is a colorimetric assay system that measures the reduction of a yellow Methylthiazolyldiphenyl-tetrazolium bromide (MTT) into an insoluble purple product by the mitochondria of viable cells. The skin epidermal tissues used previously to determine degree of lightness for each test material and of untreated tissues were used to determine percent viable cells remaining at the end of the experiment. The skin epidermal tissues after degree of lightness test were incubated with MTT reagent for 3 h. After incubation extraction buffer is added to lyse the cells and allowed to continue overnight. Samples are read using a plate reader at a wavelength of 570 nm and compared against untreated control and expressed in % Cell Viability as of control. A reduction of ≧30% cell viability as of control consider as a significant indication of cell cytotoxicity caused by the test materials. The amount of purple color produced is directly proportional to the number of viable cells.\nCytotoxicity potential was determined by MTT assay for all extracts and calculated as % reduction of cell viability as compared to control, wherein >30% reduction of cell viability constitute significant cytotoxicity issues."}}}
{"smiles": "OC12COC(c3ccc4c(c3)OCO4)C1COC2c1ccc2c(c1)OCO2", "note": "(centres unmarked) [Paulownin]", "values": [{"measurement": "IC50", "setting": "[1]", "value": 148, "unit": "µg/mL"}, {"measurement": "Degree of Lightness (ΔL)", "setting": "[2]; Conc. 0.5%", "value": 0.69}, {"measurement": "Degree of Lightness (ΔL)", "setting": "[2]; Conc. 1%", "value": 1.52}, {"measurement": "Degree of Lightness (ΔL)", "setting": "[2]; Conc. 2%", "value": 2.79}, {"measurement": "Cytotoxicity potential by MTT assay", "setting": "[3]", "value": "did not show any significant cytotoxicity"}]}
